“Also recorded” adds a separate entry of the source.

Assay [1] can be described thus: Muscle tissue pH after treadmill exercise in mice. It is filed as in vivo, ICR mice. As to conditions: exercise group vs control exercise group; oral once a day for two weeks, 2.0% solution 5 μl/g body weight; treadmill 30 minutes at 25 m/min; tibialis anterior and gastrocnemis muscle.
Description: After anesthetic, intermuscular pH of the tibialis anterior muscle and the gastrocnemis muscle was measured using a micro-glass electrode (CMN-141, Chemical Instruments).
The experiment was conducted using 7-week-old male ICR mice (Shimizu Laboratory Supplies). After one week of preliminary care, the mice were separated into two groups based on body weight: a glutathione group (n=21) and a control group (n=21). Glutathione (KOHJIN Life Sciences Co., Ltd.) was prepared in a 2.0% solution and was administered orally once a day for two weeks to the glutathione group at a dose of 5 μl/g of body weight. The same amount of distilled water was administered orally to the control group for the same period of time. […] On the final day, the groups were further divided into a control sedentary group (n=13), a control exercise group (n=8), a glutathione sedentary group (n=13), and a glutathione exercise group (n=8). The exercise groups were given the task of running on a treadmill, after which all groups were dissected.
The exercise task employed a treadmill (MK680, Muromachi Kikai). On the day of the exercise task, the sedentary groups were dissected without performing the exercise task, while the exercise groups were given the task of running on a treadmill for 30 minutes at a speed of 25 m/min, then were dissected immediately after completing the exercise task.
All of the data was plotted with the mean value±standard error. After performing a two-way analysis of variance in comparing the four groups, a multiple comparison test (Bonferroni) was performed. Student's t-distribution test was performed when comparing two groups. Level of significance was defined at 5%.
For the next assay, the system named is PGC-1α. The assay can be described thus: PGC-1α amount in soleus muscle by western blot. The assay is classed as in vivo, ICR mice. Particulars: treated vs control groups; oral once a day for two weeks, 2.0% solution 5 μl/g body weight; sedentary group soleus muscle. A general note: In western blotting, separated proteins are transferred to a membrane and probed.

Description for PGC-1α: An amount of PGC-1α in the muscles was measured using a western blot test. Soleus muscle of a sedentary group was homogenized and protein concentration was measured using the BCA method (BCA™ Protein Assay Kit, Thermo [sequence]). The prepared protein sample was poured into 10% gel (Wako), was separated by electrophoresis, and was transferred to a membrane using a transfer device (iBlot, Invitrogen). After 30 minutes of blocking (EzBlokChemi, ATTO CORPORATION), the sample was cleaned three times for five minutes each in Tris buffered saline-(BIO-RAD Laboratories) Tween 20 (Wako) (TBST), and was reacted with a primary antibody using an anti-PGC-1α antibody (CHEMICON International) for 60 minutes at room temperature. The sample was then cleaned three times for five minutes each in TBST and was reacted with a secondary antibody using anti-rabbit antibody (GE Healthcare) for 60 minutes at room temperature. The sample was then cleaned three times for five minutes each in TBST and was reacted with a coloring agent (ECL plus, GE Healthcare) for four minutes. Using an image analysis device (ImageQuant LAS 4000, GE Healthcare), bands were detected and converted to numerical values. Thereafter, a relative ratio with respect to a control set was calculated.
The experiment was conducted using 7-week-old male ICR mice (Shimizu Laboratory Supplies). After one week of preliminary care, the mice were separated into two groups based on body weight: a glutathione group (n=21) and a control group (n=21). […] The same amount of distilled water was administered orally to the control group for the same period of time. A twelve-hour light/dark cycle was maintained in the enclosure and the mice were able to freely take food and water from a plastic gauge. On the final day, the groups were further divided into a control sedentary group (n=13), a control exercise group (n=8), a glutathione sedentary group (n=13), and a glutathione exercise group (n=8). The exercise groups were given the task of running on a treadmill, after which all groups were dissected. […]

On to `O=C1O[C@H]([C@@H](O)CO)C(O)=C1O` [vitamin C], for which, in assay [1], the “Muscle tissue pH” value is given as “not observed”. The “PGC-1α expression in the soleus muscles (relative ratio to control)” value with PGC-1α is reported as “not observed”.
With `N[C@@H](CCC(=O)N[C@@H](CS)C(=O)NCC(=O)O)C(=O)O` [glutathione, γ-L-Glu-L-Cys-Gly], the “Muscle tissue pH” value in assay [1] was “significantly higher value; also recorded: no reduction in muscle tissue pH was observed”. For the same compound, in the assay with PGC-1α, the “PGC-1α expression in the soleus muscles (relative ratio to control)” value is listed as “significantly higher value; also recorded: an increase in PGC-1α expression”.
